For orientation: IC50 means the midpoint of a concentration-inhibition curve.

The first assay concerns α-tocopherol transfer protein (α-TTP).
Assay: not given
The conditions noted are these: relative affinity, RRR-α-tocopherol essentially 100%; cited from earlier work.
For the molecule `Cc1c(C)c2c(c(C)c1O)CC[C@@](C)(CCC[C@H](C)CCC[C@H](C)CCCC(C)C)O2` [RRR-α-tocopherol], the “affinity of Alpha-TTP” value is recorded as approximately 100%.
With `Cc1c(C)c2c(c(C)c1O)CCC(C)(C(=O)O)O2` (stereo not shown) [Trolox, 6-hydroxy-2,5,7,8-tetramethylchroman-2-carboxylic acid], the “affinity of Alpha-TTP” value is recorded as 9%.
As to `CC(=O)Oc1c(C)c(C)c2c(c1C)CCC(C)(CCC[C@H](C)CCC[C@H](C)CCCC(C)C)O2` (stereo partly drawn) [α-tocopherol acetate], the “affinity of Alpha-TTP” value was 2%.
Take `Cc1cc(O)c(C)c2c1O[C@](C)(CCC[C@H](C)CCC[C@H](C)CCCC(C)C)CC2` [β-tocopherol]: the “affinity of Alpha-TTP” value is listed as 38%.
Turning to `Cc1c(O)cc2c(c1C)O[C@](C)(CCC[C@H](C)CCC[C@H](C)CCCC(C)C)CC2` [γ-tocopherol], the “affinity of Alpha-TTP” value was 9%.

System in another assay: not listed separately
Put plainly: DPPH assay (antioxidant activity, free radical scavenging). The assay is classed as biochemical. The conditions noted are these: 5 concentrations, 0.1 mM DPPH, water:methanol 1:1, reading after 30 min at 518 nm, read-out: IC50, the point at which 50% of DPPH had been reduced. From the text:
Assays that may be used to measure free radical scavenging properties include, for example, the DPPH assay and the ABTS assay. The 1,1-diphenyl-2-picryl hydrazyl (DPPH) radical is a stable free radical of purple color. Adding an antioxidant reduces the DPPH radical, which can be observed by color change (to yellow) in a spectrophotometer, for example by measuring absorbance at 518 nm. Mixing 2,2-α-azino-bis-(3-ethylbenzthiazoline-6-sulfonic acid) (ABTS) and hydrogen peroxide produces the ABTS radical (ABTS^●). Subsequent incubation with peroxidase produces the radical cation ABTS^•+. Adding an antioxidant causes an attenuation of the color change, which can be measured for example at 734 nm. The activity of an antioxidant is conventionally expressed as the concentration of an equivalent millimolar standard Trolox solution.
A stock solution of DPPH in methanol, 0.4 mM was prepared and stored in the dark at −20° C. prior to use. A test sample was diluted with water (pH=3.5 prepared by addition of acetic acid) to 1 ml. The sample was then added to the dilute DPPH stock in methanol to obtain a final sample volume of 2 ml with a 0.1 mM DPPH concentration. The water:methanol ratio was 1:1 (v/v). A blank was prepared with 1 ml of water (pH=3.5) and pure methanol. […] Absorption readings were taken after 30 min at 518 nm using a Geminys 6 spectrophotometer (Thermo Scientific, Waltham, Mass.). […]
In general terms: Loss of DPPH colour is used to gauge radical scavenging.
Consider `COC(=O)C(Cc1c[nH]cn1)NC(=O)CCNC(=O)CCCCCCCCCCCC[C@]1(C)CCc2c(C)c(O)c(C)c(C)c2O1` (stereo partly drawn) [VECAR, methyl 2-(3-(13-((R)-6-hydroxy-2,5,7,8-tetramethylchroman-2-yl)tridecanamido)propanamido)-3-(1H-imidazol-4-yl)propanoate], for which the IC50 came out at 24.9 ± 1.4 µM.
On to `Cc1c(C)c2c(c(C)c1O)CC[C@@](C)(CCC[C@H](C)CCC[C@H](C)CCCC(C)C)O2` [alpha-tocopherol], for which the half-inhibitory concentration (IC50) turned out to be 24.4 ± 1.5 µM.

The record behind these values is US9220787B2, “Vitamin E conjugates, and their uses as antioxidants and prodrug delivery vehicles” (Board of Supervisors of Louisiana State University And …, priority 2010, dated 2015).
